Data: ChEMBL document CHEMBL1201862, “PubChem BioAssay data set” (2004)
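Method: 48-hour compound exposure of cells in 96-well plates, five concentrations, linear interpolation of endpoints. At the GI50, growth is halved.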 Activity calls are given as the source filed them. No stated cut-off is given here; in the data, active = GI50 up to about 1.1 µM and inactive = higher.

Columns and labels:
Assay in all cases: growth of human tumour cells (NCI), 48 h
786-0 = tested on: 786-0
A498 = tested on: A498
A549 = tested on: A549
ACHN = tested on: ACHN
BT-549 = tested on: BT-549
CAKI-1 = tested on: CAKI-1
CCRF-CEM = tested on: CCRF-CEM
COLO 205 = tested on: COLO 205
DU-145 = tested on: DU-145
EKVX = tested on: EKVX
HCC 2998 = tested on: HCC 2998
HCT-116 = tested on: HCT-116
HCT-15 = tested on: HCT-15
HL-60 = tested on: HL-60
HOP-62 = tested on: HOP-62
HOP-92 = tested on: HOP-92
HT-29 = tested on: HT-29
Hs-578T = tested on: Hs-578T
IGROV-1 = tested on: IGROV-1
K562 = tested on: K562
KM12 = tested on: KM12
LOX IMVI = tested on: LOX IMVI
M14 = tested on: M14
MCF7 = tested on: MCF7
MDA-MB-231 = tested on: MDA-MB-231
MDA-MB-435 = tested on: MDA-MB-435
MDA-N = tested on: MDA-N
MOLT-4 = tested on: MOLT-4
Malme-3M = tested on: Malme-3M
NCI-H226 = tested on: NCI-H226
NCI-H23 = tested on: NCI-H23
NCI-H460 = tested on: NCI-H460
NCI-H522 = tested on: NCI-H522
NCI/ADR-RES = tested on: NCI/ADR-RES
OVCAR-3 = tested on: OVCAR-3
OVCAR-4 = tested on: OVCAR-4
OVCAR-5 = tested on: OVCAR-5
OVCAR-8 = tested on: OVCAR-8
PC-3 = tested on: PC-3
RPMI-8226 = tested on: RPMI-8226
SF-268 = tested on: SF-268
SF-295 = tested on: SF-295
SF-539 = tested on: SF-539
SK-MEL-28 = tested on: SK-MEL-28
SK-MEL-2 = tested on: SK-MEL-2
SK-MEL-5 = tested on: SK-MEL-5
SK-OV-3 = tested on: SK-OV-3
SN12C = tested on: SN12C
SNB-19 = tested on: SNB-19
SNB-75 = tested on: SNB-75
SR = tested on: SR
SW-620 = tested on: SW-620
T47D = tested on: T47D
TK-10 = tested on: TK-10
U-251 = tested on: U-251
UACC-257 = tested on: UACC-257
UACC-62 = tested on: UACC-62
UO-31 = tested on: UO-31
RXF 393 = tested on: RXF 393

Cc1nc2c(N3CCCC3)nc(N3CCNCC3)nc2nc1NCc1ccccc1
GI50 (786-0): 4.9 µM (inactive) | GI50 (A498): 4.79 µM (inactive) | GI50 (A549): 3.88 µM (inactive) | GI50 (ACHN): 5.12 µM (inactive) | GI50 (BT-549): 2.4 µM (inactive) | GI50 (CAKI-1): 3.01 µM (inactive) | GI50 (CCRF-CEM): 2.4 µM (inactive) | GI50 (COLO 205): 1.24 µM (inactive) | GI50 (DU-145): 6.52 µM (inactive) | GI50 (EKVX): 8.11 µM (inactive) | GI50 (HCC 2998): 1.53 µM (inactive) | GI50 (HCT-116): 1.62 µM (inactive) | GI50 (HCT-15): 2.09 µM | GI50 (HL-60): 3.61 µM (inactive) | GI50 (HOP-62): 2.94 µM (inactive) | GI50 (HOP-92): 2.33 µM (inactive) | GI50 (HT-29): 2.41 µM (inactive) | GI50 (Hs-578T): 6.17 µM (inactive) | GI50 (IGROV-1): 3.95 µM (inactive) | GI50 (K562): 2.81 µM (inactive) | GI50 (KM12): 2.84 µM (inactive) | GI50 (LOX IMVI): 1.65 µM (inactive) | GI50 (M14): 1.94 µM (inactive) | GI50 (MCF7): 2.33 µM (inactive) | GI50 (MDA-MB-231): 2.95 µM (inactive) | GI50 (MDA-MB-435): 2.24 µM (inactive) | GI50 (MDA-N): 1.61 µM (inactive) | GI50 (MOLT-4): 2.52 µM (inactive) | GI50 (Malme-3M): 2.04 µM (inactive) | GI50 (NCI-H226): 13.1 µM (inactive) | GI50 (NCI-H23): 8.85 µM (inactive) | GI50 (NCI-H460): 3.56 µM (inactive) | GI50 (NCI-H522): 1.65 µM (inactive) | GI50 (NCI/ADR-RES): 13 µM (inactive) | GI50 (OVCAR-3): 2.43 µM (inactive) | GI50 (OVCAR-4): 7.73 µM (inactive) | GI50 (OVCAR-5): 13 µM (inactive) | GI50 (OVCAR-8): 3.37 µM (inactive) | GI50 (PC-3): 5.05 µM (inactive) | GI50 (RPMI-8226): 2.11 µM (inactive) | GI50 (SF-268): 3.85 µM (inactive) | GI50 (SF-295): 2.04 µM (inactive) | GI50 (SF-539): 2.65 µM (inactive) | GI50 (SK-MEL-28): 1.95 µM (inactive) | GI50 (SK-MEL-2): 4.98 µM (inactive) | GI50 (SK-MEL-5): 1.65 µM (inactive) | GI50 (SK-OV-3): 7.69 µM (inactive) | GI50 (SN12C): 7.29 µM (inactive) | GI50 (SNB-19): 5.66 µM (inactive) | GI50 (SNB-75): 0.578 µM (active) | GI50 (SR): 2.84 µM (inactive) | GI50 (SW-620): 2.36 µM (inactive) | GI50 (T47D): 1.73 µM (inactive) | GI50 (TK-10): 4.88 µM (inactive) | GI50 (U-251): 3.2 µM (inactive) | GI50 (UACC-257): 1.94 µM (inactive) | GI50 (UACC-62): 2.79 µM (inactive) | GI50 (UO-31): 2.41 µM (inactive)

O=C(CCc1cc(O)ccc1O)OCCc1ccccc1
GI50 (786-0): 9.53 µM (inactive) | GI50 (A498): > 100 µM (inactive) | GI50 (A549): > 100 µM (inactive) | GI50 (ACHN): 4.33 µM (inactive) | GI50 (BT-549): 11.5 µM (inactive) | GI50 (CAKI-1): 7.66 µM (inactive) | GI50 (CCRF-CEM): 0.313 µM (active) | GI50 (COLO 205): 14.2 µM (inactive) | GI50 (DU-145): 19.9 µM (inactive) | GI50 (EKVX): 16.6 µM (inactive) | GI50 (HCC 2998): 47.2 µM (inactive) | GI50 (HCT-116): 13 µM (inactive) | GI50 (HCT-15): 11.1 µM | GI50 (HL-60): 0.718 µM (active) | GI50 (HOP-62): 36.1 µM (inactive) | GI50 (HOP-92): 2.96 µM (inactive) | GI50 (HT-29): 41.1 µM (inactive) | GI50 (Hs-578T): 16.1 µM (inactive) | GI50 (IGROV-1): 12.7 µM (inactive) | GI50 (K562): 1.4 µM (inactive) | GI50 (KM12): 8.53 µM (inactive) | GI50 (M14): 23.4 µM (inactive) | GI50 (MCF7): 15.8 µM (inactive) | GI50 (MDA-MB-231): 15.6 µM (inactive) | GI50 (MDA-MB-435): 10.4 µM (inactive) | GI50 (MDA-N): 12.7 µM (inactive) | GI50 (MOLT-4): 1.36 µM (inactive) | GI50 (Malme-3M): 12.6 µM (inactive) | GI50 (NCI-H226): > 28.3 µM (inactive) | GI50 (NCI-H23): 32.7 µM (inactive) | GI50 (NCI-H460): 44.8 µM (inactive) | GI50 (NCI-H522): 0.28 µM (active) | GI50 (NCI/ADR-RES): 19.1 µM (inactive) | GI50 (OVCAR-4): 1.49 µM (inactive) | GI50 (OVCAR-5): 27.4 µM (inactive) | GI50 (OVCAR-8): 12.7 µM (inactive) | GI50 (PC-3): 4.91 µM (inactive) | GI50 (RPMI-8226): 0.875 µM (active) | GI50 (RXF 393): 11.7 µM (inactive) | GI50 (SF-268): 5.64 µM (inactive) | GI50 (SF-295): 37.5 µM (inactive) | GI50 (SF-539): 3.83 µM (inactive) | GI50 (SK-MEL-28): 25.1 µM (inactive) | GI50 (SK-MEL-2): 18.7 µM (inactive) | GI50 (SK-MEL-5): 22.2 µM (inactive) | GI50 (SK-OV-3): > 100 µM (inactive) | GI50 (SN12C): 16.8 µM (inactive) | GI50 (SNB-19): 48.5 µM (inactive) | GI50 (SNB-75): > 64.1 µM (inactive) | GI50 (SR): 5.6 µM (inactive) | GI50 (SW-620): 16.3 µM (inactive) | GI50 (T47D): 16.4 µM (inactive) | GI50 (TK-10): 14.7 µM (inactive) | GI50 (U-251): 13.6 µM (inactive) | GI50 (UACC-257): 12.4 µM (inactive) | GI50 (UACC-62): 12.4 µM (inactive) | GI50 (UO-31): 4.6 µM (inactive)

O=C1[C@@H]2Cc3c([nH]c4ccccc34)C(C3CCCCC3)N2C(=O)[C@@H]2CCCN12 (some centres undefined)
GI50 (786-0): 27.8 µM (inactive) | GI50 (A498): 37.8 µM (inactive) | GI50 (A549): 33.1 µM (inactive) | GI50 (ACHN): 28.9 µM (inactive) | GI50 (BT-549): 30.6 µM (inactive) | GI50 (CAKI-1): 31.7 µM (inactive) | GI50 (COLO 205): 21.5 µM (inactive) | GI50 (DU-145): 55.5 µM (inactive) | GI50 (EKVX): 33.5 µM (inactive) | GI50 (HCT-116): 27.5 µM (inactive) | GI50 (HCT-15): 33.4 µM | GI50 (HL-60): 27.3 µM (inactive) | GI50 (HOP-62): 31.4 µM (inactive) | GI50 (HOP-92): 29.6 µM (inactive) | GI50 (HT-29): 28.5 µM (inactive) | GI50 (Hs-578T): 27.9 µM (inactive) | GI50 (IGROV-1): 29.6 µM (inactive) | GI50 (K562): 37.2 µM (inactive) | GI50 (KM12): 23.3 µM (inactive) | GI50 (LOX IMVI): 28.3 µM (inactive) | GI50 (M14): 37.8 µM (inactive) | GI50 (MCF7): 30.4 µM (inactive) | GI50 (MDA-MB-231): 21.1 µM (inactive) | GI50 (MDA-MB-435): 34.2 µM (inactive) | GI50 (MDA-N): 30.2 µM (inactive) | GI50 (MOLT-4): 23 µM (inactive) | GI50 (Malme-3M): 18.9 µM (inactive) | GI50 (NCI-H226): 43.1 µM (inactive) | GI50 (NCI-H23): 38.1 µM (inactive) | GI50 (NCI-H522): 23 µM (inactive) | GI50 (NCI/ADR-RES): 22 µM (inactive) | GI50 (OVCAR-3): 20.4 µM (inactive) | GI50 (OVCAR-4): 35.2 µM (inactive) | GI50 (OVCAR-5): 37.8 µM (inactive) | GI50 (OVCAR-8): 36.7 µM (inactive) | GI50 (PC-3): 22.3 µM (inactive) | GI50 (RPMI-8226): 21.3 µM (inactive) | GI50 (RXF 393): 29.9 µM (inactive) | GI50 (SF-268): 33.5 µM (inactive) | GI50 (SF-295): 21.1 µM (inactive) | GI50 (SK-MEL-28): 50.2 µM (inactive) | GI50 (SK-MEL-2): 20 µM (inactive) | GI50 (SK-MEL-5): 17.7 µM (inactive) | GI50 (SK-OV-3): 46.9 µM (inactive) | GI50 (SN12C): 26.5 µM (inactive) | GI50 (SNB-19): 39.9 µM (inactive) | GI50 (SR): 19.9 µM (inactive) | GI50 (SW-620): 41.2 µM (inactive) | GI50 (T47D): 60 µM (inactive) | GI50 (TK-10): 35.6 µM (inactive) | GI50 (U-251): 33.8 µM (inactive) | GI50 (UACC-257): 29.2 µM (inactive) | GI50 (UACC-62): 17.3 µM (inactive) | GI50 (UO-31): 32.3 µM (inactive)
